Reference: publication PMC3265452 (PLoS Neglected Tropical Diseases, 2012)
Structures can show the parent of a compound that is named as a salt. Where two headings read alike, the source gives them in different places.

Target: AaDOP2 (Aedes aegypti, UniProt H6D5H2)
Test: AaDOP2 antagonist screen of the LOPAC1280 library (HEK-CRELuc-Aadop2 cells, luminescence)
Assay type: cell-based
[1] = 10 µM compound, 300 nM dopamine, 2 hr, hit = compound effect <20

Chain of AaDOP2 (H6D5H2 1-476): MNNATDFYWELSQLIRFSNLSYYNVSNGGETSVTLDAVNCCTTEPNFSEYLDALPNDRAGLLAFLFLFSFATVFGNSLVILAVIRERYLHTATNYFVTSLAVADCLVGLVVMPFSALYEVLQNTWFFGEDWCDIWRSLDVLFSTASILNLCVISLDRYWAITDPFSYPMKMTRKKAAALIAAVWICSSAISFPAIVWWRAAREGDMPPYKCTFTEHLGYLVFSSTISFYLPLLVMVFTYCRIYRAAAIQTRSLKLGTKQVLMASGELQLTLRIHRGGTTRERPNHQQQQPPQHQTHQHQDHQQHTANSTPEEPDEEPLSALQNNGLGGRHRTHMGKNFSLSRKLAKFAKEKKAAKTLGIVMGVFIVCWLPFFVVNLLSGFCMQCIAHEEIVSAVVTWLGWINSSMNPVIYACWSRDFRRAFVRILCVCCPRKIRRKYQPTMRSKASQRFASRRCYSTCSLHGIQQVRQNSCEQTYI

Nc1nc(O)c2ncn(COC(CO)CO)c2n1 [Compound 550, Ganciclovir]
Compound effect (percent receptor signaling in presence of test compound, relative lux units relative to the SCH23390 control): 92

NC(=O)CC[C@H](N)C(=O)O [Compound 551, L-Glutamine]
Compound effect (percent receptor signaling in presence of test compound, relative lux units relative to the SCH23390 control): 115

NC(N)=Nc1ccc2[nH]c3c(c2c1)C[C@@]1(O)[C@H]2Cc4ccc(O)c5c4[C@@]1(CCN2CC1CC1)[C@H]3O5.O=C(O)C(F)(F)F.O=C(O)C(F)(F)F [Compound 552, Guanidinyl-naltrindole di-trifluoroacetate]
Compound effect (percent receptor signaling in presence of test compound, relative lux units relative to the SCH23390 control): 120

Br.Br.N=C(N)NCCSSCCNC(=N)N [Compound 553, Guanidinoethyl disulfide dihydrobromide]
Compound effect (percent receptor signaling in presence of test compound, relative lux units relative to the SCH23390 control) [1]: 105%

CN(CCOc1ccc(C[C@H](Nc2ccccc2C(=O)c2ccccc2)C(=O)O)cc1)c1ccccn1 [Compound 554, GW1929]
Compound effect (percent receptor signaling in presence of test compound, relative lux units relative to the SCH23390 control): 131

O=C1Nc2ccc(I)cc2/C1=C/c1cc(Br)c(O)c(Br)c1 [Compound 555, GW5074]
Compound effect (percent receptor signaling in presence of test compound, relative lux units relative to the SCH23390 control): 25

O=c1c(-c2ccc(O)cc2)coc2cc(O)cc(O)c12 [Compound 556, Genistein]
Compound effect (percent receptor signaling in presence of test compound, relative lux units relative to the SCH23390 control): 67

CC(C)(Sc1ccc(CCN(CCCCC2CCCCC2)C(=O)NC2CCCCC2)cc1)C(=O)O [Compound 557, GW7647]
Compound effect (percent receptor signaling in presence of test compound, relative lux units relative to the SCH23390 control): 50

N=C(N)NC(CCC(=O)O)C(=O)O (stereo not drawn) [Compound 558, alpha-Guanidinoglutaric acid]
Compound effect (percent receptor signaling in presence of test compound, relative lux units relative to the SCH23390 control) [1]: 121%

CC[N+](CC)(CC)CCOc1cccc(OCC[N+](CC)(CC)CC)c1OCC[N+](CC)(CC)CC [Compound 559, Gallamine triethiodide]
Compound effect (percent receptor signaling in presence of test compound, relative lux units relative to the SCH23390 control): 120

Cl.Cl.c1ccc(CCCN2CCN(CCOC(c3ccccc3)c3ccccc3)CC2)cc1 [Compound 560, GBR-12935 dihydrochloride]
Compound effect (percent receptor signaling in presence of test compound, relative lux units relative to the SCH23390 control): 61

O=C(O)C1=CCNCC1 [Compound 561, Isoguvacine hydrochloride]
Compound effect (percent receptor signaling in presence of test compound, relative lux units relative to the SCH23390 control): 71

O=C(O)C1=CCCNC1 [Compound 562, Guvacine hydrochloride]
Compound effect (percent receptor signaling in presence of test compound, relative lux units relative to the SCH23390 control): 94

Br.NCc1cc(O)no1 [Compound 564, Muscimol hydrobromide]
Compound effect (percent receptor signaling in presence of test compound, relative lux units relative to the SCH23390 control): 130

N=C(N)N/N=C/c1c(Cl)cccc1Cl [Compound 565, Guanabenz acetate]
Compound effect (percent receptor signaling in presence of test compound, relative lux units relative to the SCH23390 control): 156

N[C@H](CCC(=O)NCS(=O)(=O)O)C(=O)O [Compound 566, gamma-D-Glutamylaminomethylsulfonic acid]
Compound effect (percent receptor signaling in presence of test compound, relative lux units relative to the SCH23390 control) [1]: 109%

Cc1cnc(C(=O)NCCc2ccc(S(=O)(=O)NC(=O)NC3CCCCC3)cc2)cn1 [Compound 567, Glipizide]
Compound effect (percent receptor signaling in presence of test compound, relative lux units relative to the SCH23390 control): 103

CC1=NN=C(c2ccc(N)cc2)c2cc3c(cc2C1)OCO3.Cl [Compound 568, GYKI 52466 hydrochloride]
Compound effect (percent receptor signaling in presence of test compound, relative lux units relative to the SCH23390 control): 90

CC1Cc2cc3c(cc2C(c2ccc(N)cc2)=NN1)OCO3 (stereo not drawn) [Compound 569, GYKI 52895]
Compound effect (percent receptor signaling in presence of test compound, relative lux units relative to the SCH23390 control): 71

COC(=O)N1CCN(C(=O)Cc2ccc(Cl)c(Cl)c2)C(CN2CCCC2)C1.O=C(O)/C=C/C(=O)O (stereo not drawn) [Compound 570, GR-89696 fumarate]
Compound effect (percent receptor signaling in presence of test compound, relative lux units relative to the SCH23390 control): 79

NCC1(CC(=O)O)CCCCC1 [Compound 571, Gabapentin]
Compound effect (percent receptor signaling in presence of test compound, relative lux units relative to the SCH23390 control): 112
